Experiment: Tested for inhibitory activity of compound against Phospholipase A2 (PLA2)

Row | Compound | IC50 [µM]
1 | CCCCCCCCCCCC(=O)N1C(=O)OC[C@@H]1COP(=O)([O-])OCC[N+](C)(C)C [{2-[((R)-3-Dodecanoyl-2-oxo-oxazolidin-4-ylmethoxy)-hydroxy-phosphoryloxy]-ethyl}-trimethyl-ammonium] | 31
2 | CCCCCCCCCCCC(=O)N[C@H](CCCC)COP(=O)([O-])OCC[N+](C)(C)C [(2-{[2-((S)-Dodecanoylamino)-hexyloxy]-hydroxy-phosphoryloxy}-ethyl)-trimethyl-ammonium] | 5.3

— BindingDB's records for doi:10.1016/S0960-894X(01)80746-0 (1993)
